According to PubChem BioAssay (NCI):
“And” between values parts separate entries of the source, which are not always exact repeats. Identical values can stand only once.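 48-hour exposure; five concentrations; linearly interpolated endpoints. The concentration for 50% growth inhibition is given as GI50. TGI: total growth inhibition.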

How the values were obtained:
Assay in all cases: NCI tumour cell line growth inhibition, 48 h
[1] = system: SF-268 CNS
[2] = system: COLO 205 colon
[3] = system: CCRF-CEM leukemia
[4] = system: SF-539 CNS
[5] = system: CAKI-1 renal
[6] = system: OVCAR-5 ovarian
[7] = system: A549 NSCLC
[8] = system: SK-MEL-28 melanoma
[9] = system: NCI-H460 lung
[10] = system: NCI-H23 lung

SMILES | GI50 [1] | TGI [1] | GI50 [2] | TGI [2] | GI50 [3] | TGI [3] | GI50 [4] | TGI [4] | GI50 [5] | TGI [5] | GI50 [6] | TGI [6] | GI50 [7] | TGI [7] | GI50 [8] | TGI [8] | GI50 [9] | TGI [9] [µM] | GI50 [10] | TGI [10]
COc1cc(C2CC(c3ccc(Nc4ccnc5cc(Cl)ccc45)cc3)=NN2c2ccc(Cl)cc2)cc(OC)c1OC (centres undefined) | 5490 nM | > 100 µM | 3280 nM | 31.5 µM | 2500 nM | > 100 µM | 1740 nM | 7360 nM | 2120 nM | > 100 µM | 6080 nM | > 100 µM | 4150 nM | > 100 µM | 2660 nM | 55.9 µM | 3160 nM | > 100 | 8820 nM | > 100 µM
COc1ccc2c(c1)C(=O)c1c-2n(CCCI)c(=O)c2cc([N+](=O)[O-])ccc12 | 161 nM and 141 nM | 44.4 µM and > 100 µM | 1770 nM and 1120 nM | 21.6 µM and 55.3 µM | 25.4 nM and 15.3 nM |  | 96.2 nM and 57.7 nM | 338 nM and 376 nM | 472 nM and 309 nM | 48.6 µM and 6.86 µM |  | 7.75 µM and 46.3 µM | 316 nM and 402 nM | 50 µM and 40.9 µM | 861 nM and 3070 nM | 50 µM and > 100 µM | 11.7 nM and 29.6 nM |  | 160 nM and 119 nM | 0.988 µM and 1.27 µM
COc1ccc(C2ON(c3cccc(C)n3)CC=C2C)cc1 (centres undefined) |  | > 100 µM |  | > 100 µM |  | > 100 µM |  | > 100000 nM |  | > 100 µM |  | > 100 µM |  | > 100 µM |  | 71.3 µM |  | > 100 |  | > 100 µM
C[N+]1=C(/C=C\C=C\c2ccccc2)C(C)(C)c2ccccc21 | 3330 nM | 12.1 µM | 686 nM | 2.26 µM | 2360 nM | 7.76 µM | 2590 nM | 7570 nM | 3820 nM | 13.5 µM | 3880 nM | 13.3 µM | 4430 nM | 19.6 µM | 1530 nM | 3.46 µM | 4440 nM | 17.2 | 2830 nM | 11.5 µM
COC(=O)[C@@H](C)C[C@H](Cc1ccccc1)NC(=O)c1csc([C@@H](C[C@H](C(C)C)N(C)C(=O)[C@@H](NC(=O)[C@H]2CCCCN2C)C2CC2)OC(C)=O)n1 | 0.594 nM and 1.65 nM | > 16.5 µM | 0.369 nM and < 1.65 nM | 0.00336 µM and < 0.00165 µM | 0.621 nM and 1.65 nM | > 16.5 µM | 1.25 nM and 1.65 nM | 4.48 nM and 2.57 nM | 5.77 nM |  | 3.84 nM and 6.04 nM | > 16.5 µM | 2.7 nM and 1.65 nM | > 16.5 µM | 0.934 nM |  | 0.362 nM and 1.65 nM | > 16.5 | 0.532 nM and 1.65 nM | > 16.5 µM
N#C/C(=C\c1ccc(Br)cc1)n1nnc2ccc(F)cc21 | 1840 nM | 4.33 µM | 1540 nM | 4 µM | 395 nM | > 100 µM | 1260 nM | 2940 nM | 293 nM | 1.35 µM | 1870 nM | 3.99 µM | 2010 nM | 72.4 µM | 1290 nM | 3.25 µM | 2260 nM | 5.33 | 1420 nM | 3.34 µM
COc1cc(Nc2ncc(F)c(Nc3ccc4c(n3)N(COP(=O)(O)O)C(=O)C(C)(C)O4)n2)cc(OC)c1OC | 1450 nM and 1040 nM | 5.22 µM and 3.73 µM | 2030 nM and 1310 nM | 5.37 µM and 3.59 µM | 3090 nM and 3840 nM | 44.8 µM and > 10 µM | 605 nM and 454 nM | 1940 nM and 1810 nM | 456 nM and 645 nM | 1.9 µM and > 10 µM | 1700 nM and 1380 nM | 9.62 µM and > 10 µM | 2270 nM and 2110 nM | > 26.8 µM | 3690 nM and 5050 nM | 21 µM and > 10 µM | 3590 nM and 3450 nM | > 100 | 2510 nM and 2570 nM | 22.7 µM and > 10 µM
CN(C)CC/[N+]([O-])=C(/c1ccccc1)C12CC3CC(CC(C3)C1)C2 |  | 35.9 µM |  | 30.3 µM |  | 34.3 µM |  | 30800 nM |  | 31.5 µM |  | 32 µM |  | 32.9 µM |  | 29.9 µM |  | 35.1 |  | 37.4 µM
CCCCCCCc1cc2c3c(nc4ccccc42)C(=O)c2cccnc2-c3n1 | 5480 nM | 11.8 µM | 5050 nM | 9.59 µM | 1620 nM | 7.66 µM | 18800 nM | 34800 nM | 4600 nM | 9.51 µM | 4090 nM | 10.7 µM | 2460 nM | 11.9 µM | 5750 nM | 11 µM | 1050 nM | 3.1 | 10800 nM | 25.6 µM
Cn1cc(-c2ccc(-c3ccc(C4=NC5(CC5)C(=O)N4C[C@@H]4CCN(C(=O)C5CC5)C4)cc3)cc2)cn1 | 11900 nM | > 100 µM | 15600 nM | 93.5 µM | 6010 nM | 42.5 µM | 10700 nM | 32100 nM | 12600 nM | > 100 µM | 38600 nM | > 100 µM | 12500 nM | 39.3 µM | 20300 nM | 79 µM | 1220 nM | 18 | 12700 nM | 41.8 µM
N#Cc1cccc(/C=N/N=C(\N)NO)c1 |  | > 100 µM |  | > 100 µM |  | > 100 µM |  | > 100000 nM |  | > 100 µM |  | > 100 µM |  | > 100 µM |  | > 100 µM |  | > 100 |  | > 100 µM
Cc1cnc(C(=O)NNc2nc3sc4c(c3c(=O)n2C)C(C)CCC4)cn1 (centres undefined) | 280 nM | 6.65 µM | 296 nM | 1.33 µM | 245 nM |  | 396 nM | 2380 nM | 333 nM | 2.49 µM | 491 nM | 7.4 µM | 371 nM | 4.69 µM | 537 nM | 4.6 µM | 194 nM | 2.02 | 719 nM | 10.3 µM
Cc1ncc(C(=O)Nc2ccc(CN3CCN(C)CC3)c(C(F)(F)F)c2)cc1C#Cc1cnc(N)cc1C#N | 605 nM | 3.33 µM | 53.8 nM | 2.32 µM | 549 nM | 3.2 µM | 542 nM | 2930 nM | 154 nM | 1.38 µM | 1660 nM | 4 µM | 1260 nM | 3.93 µM | 58.4 nM | 1.69 µM | 417 nM | 2.84 | 707 nM | 3.21 µM
